Assay results: publication PMC6337391 (Molecules, 2019)
Read-outs that look alike come from different tables or passages of the source.

How the values were obtained:
[1] = Inhibition of linoleic acid lipid peroxidation (AAPH)
Outline: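 Sodium linoleate oxidation was initiated by AAPH in 0.05 M phosphate buffer, pH 7.4, at 37 °C, with test compound present and DMSO as blank. Conjugated diene hydroperoxide formation was followed as the absorbance increase at 234 nm.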

soybean lipoxygenase = molecular target: T1, soybean lipoxygenase (Glycine max, UniProt P08170); assay: biochemical; assay type: biochemical
T1 sequence (P08170 1-839): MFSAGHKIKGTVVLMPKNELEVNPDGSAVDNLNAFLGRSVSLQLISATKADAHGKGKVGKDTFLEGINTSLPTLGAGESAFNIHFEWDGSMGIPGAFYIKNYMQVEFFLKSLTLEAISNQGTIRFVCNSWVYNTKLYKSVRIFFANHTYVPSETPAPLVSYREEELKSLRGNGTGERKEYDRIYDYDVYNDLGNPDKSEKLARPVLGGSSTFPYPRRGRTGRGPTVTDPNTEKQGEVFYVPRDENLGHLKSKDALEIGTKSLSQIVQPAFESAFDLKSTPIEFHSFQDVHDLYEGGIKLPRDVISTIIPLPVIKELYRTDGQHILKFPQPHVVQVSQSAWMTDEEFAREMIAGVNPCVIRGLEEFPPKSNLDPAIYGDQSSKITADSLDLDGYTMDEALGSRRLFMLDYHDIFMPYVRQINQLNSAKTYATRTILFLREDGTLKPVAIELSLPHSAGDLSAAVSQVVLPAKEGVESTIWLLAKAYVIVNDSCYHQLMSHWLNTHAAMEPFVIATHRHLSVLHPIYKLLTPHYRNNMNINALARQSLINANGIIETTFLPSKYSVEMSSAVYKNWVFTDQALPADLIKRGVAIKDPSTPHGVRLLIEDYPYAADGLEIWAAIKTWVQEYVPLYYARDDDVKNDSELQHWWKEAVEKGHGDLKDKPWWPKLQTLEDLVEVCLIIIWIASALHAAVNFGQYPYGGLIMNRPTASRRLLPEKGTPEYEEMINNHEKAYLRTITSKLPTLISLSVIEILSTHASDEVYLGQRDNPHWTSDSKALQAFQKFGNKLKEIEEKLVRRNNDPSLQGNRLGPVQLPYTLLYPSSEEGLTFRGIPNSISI
Outline: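 Soybean LOX (enzyme solution 1/9 × 10^−4 w/v in saline) incubated at room temperature with sodium linoleate ([…]) in tris buffer pH 9. Compounds added from DMSO stocks. IC50 derived from several concentrations.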

[2] = Lipophilicity as RM values by RP-TLC; assay type: physicochemical; set-up: key: RM = log[(1/Rf) − 1]; details: methanol/water 70/30, SD < 10%
Outline: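 Reversed-phase TLC on silica gel plates impregnated with 5% (v/v) liquid paraffin, methanol/water 70/30 (v/v) mobile phase, saturated tanks at 24 °C, UV detection. RM = log[(1/Rf) − 1] from five Rf measurements.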

[3] = system: L929 mouse fibroblasts cells; assay: Cytotoxicity, propidium iodide fluorescence method; assay type: cell-based; details: 24-h incubation
Outline: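 L929 cells in EMEM with 10% horse serum were allowed to attach for 24 h, then exposed to 1, 10, 20, 50 and 100 μM compound for 24 h at 37 °C. Cells were detached, stained with propidium iodide, and cell death was measured by flow cytometry.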

Compound | AAPH% @ 100 μM (anti-lipid peroxidation) [1] [%] | % LOX Inhb. @ 100 μM (soybean lipoxygenase; soybean LOX) [%] | RM [2] | 1 μM Average (% pi) ± σ [3] [%] | 10 μM Average (% pi) ± σ [3] [%] | 20 μM Average (% pi) ± σ [3] [%] | 50 μM Average (% pi) ± σ [3] [%] | 100 μM Average (% pi) ± σ [3] [%] | IC50 (soybean lipoxygenase) [µM] | IC50 (soybean lipoxygenase; soybean LOX, read-out: LOX IC50) [µM]
CC(=O)c1ccc(OCCOc2ccc(C(C)=O)cc2)cc1 [di, 1,1′-((ethane-1,2-diylbis(oxy))bis(4,1-phenylene))diethanone] | 22 | 12 | 0.67 | 4.94 ± 1.02 | 9.05 ± 0.58 | 16.78 ± 5.61 | 33.22 ± 9.65 | 33.22 ± 9.65 |  | 
O=C(/C=C/C=C/c1ccc([N+](=O)[O-])cc1)c1ccc(OCCCOc2ccc(C(=O)/C=C/C=C/c3ccc([N+](=O)[O-])cc3)cc2)cc1 [c11, (2E,2′E,4E,4′E)-1,1′-((propane-1,3-diylbis(oxy))bis(4,1-phenylene))bis(5-(4-nitrophenyl)penta-2,4-dien-1-one)] | 68 | 95 | −0.88 | 6.4 ± 0.4 | 19.07 ± 7.23 | 34.63 ± 0.31 | 64.53 ± 3.07 | 64.53 ± 3.07 | 50 | 
O=C(/C=C/c1cccc2ccccc12)c1ccccc1O [b4, (E)-1-(2-hydroxyphenyl)-3-(naphthalen-1-yl) prop-2-en-1-one] | 82 | 82 | −0.03 |  |  |  |  |  |  | 65
CC(=O)c1ccc(OCCCCCCCOc2ccc(C(C)=O)cc2)cc1 [dvi, 1,1′-((heptane-1,7-diylbis(oxy))bis-(4,1-phenylene)) diethanone] | 12 | 17 | 0.32 | 0.37 ± 0.52 | 1.92 ± 1.02 | 1.79 ± 1.53 | 2.55 ± 0.5 | 2.55 ± 0.5 |  | 
